Reference: ChEMBL document CHEMBL1132683 (Bioorg Med Chem Lett, 1999)
Numbered stars: 1 amine (or outer) side, 2 acyl side, 3 side chain; on linkers, the order of the positions; unused ones are H or OH. Bridge positions count the residues as written; N and C are the ends. Square brackets hold non-standard residues; d marks the D form. Peptide text beside a SMILES is read from it. X1 = O=C([C@@]1(N[*:1])CCc2ccccc2C1)[*:2]; Atc(2S) = N[C@@]1(C(=O)O)CCc2ccccc2C1; Mpa = O=C(O)CCS; Sar = CNCC(=O)O

Experiments:
Vasopressin V2 receptor = Vasopressin V2 receptor (Rattus norvegicus, UniProt Q00788); experiment: Compound was evaluated for its dissociation constant (Kd) to rat kidney Vasopressin V2 receptor
Chain of Vasopressin V2 receptor (Q00788 whole entry): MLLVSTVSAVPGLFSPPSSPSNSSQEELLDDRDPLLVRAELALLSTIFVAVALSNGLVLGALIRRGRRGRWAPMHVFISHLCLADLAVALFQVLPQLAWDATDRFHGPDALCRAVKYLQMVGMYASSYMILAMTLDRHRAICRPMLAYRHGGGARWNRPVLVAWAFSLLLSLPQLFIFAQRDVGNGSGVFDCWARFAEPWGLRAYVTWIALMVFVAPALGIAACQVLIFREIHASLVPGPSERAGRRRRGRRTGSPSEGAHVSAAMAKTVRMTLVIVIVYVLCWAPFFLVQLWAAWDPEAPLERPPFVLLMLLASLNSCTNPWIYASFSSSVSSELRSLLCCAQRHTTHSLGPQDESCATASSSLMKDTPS

Vasopressin V1 receptor = Vasopressin V1 receptor (Rattus norvegicus, UniProt P48974+P30560); experiment: Compound was evaluated for its dissociation constant (Kd) to rat liver Vasopressin V1 receptor
[1] = target: Oxytocin receptor (Cavia porcellus); experiment: Compound was evaluated for its dissociation constant (Kd) to guinea pig myometrial Oxytocin receptor

| SMILES | Kd (Vasopressin V2 receptor) | Kd (Vasopressin V1 receptor) | Kd [1] |
| --- | --- | --- | --- |
| CC[C@H](C)[C@@H]1NC(=O)[C@@H]2c3[nH]c4ccccc4c3CCN2C(=O)CCSSC[C@H](C(=O)N(C)CC(=O)N[C@@H](CCCN=C(N)N)C(=O)NCC(N)=O)NC(=O)[C@H](CC(N)=O)NC(=O)[C@H](CCC(N)=O)NC1=O | > 100000 nM | 17.8 nM |  |
| CC[C@H](C)[C@@H]1NC(=O)[C@@H](Cc2c[nH]c3ccccc23)NC(=O)CCSSC[C@@H](C(=O)N(C)CC(=O)N[C@@H](CCCNC(=N)N)C(=O)NCC(N)=O)NC(=O)[C@H](CC(N)=O)NC(=O)[C@H](CCC(N)=O)NC1=O | 4960 nM | 888 nM |  |
| CC[C@H](C)[C@@H]1NC(=O)[C@]2(CCc3ccccc3C2)NC(=O)CCSSC[C@@H](C(=O)N(C)CC(=O)N[C@@H](CCCN=C(N)N)C(=O)NCC(N)=O)NC(=O)[C@H](CC(N)=O)NC(=O)[C@H](CCC(N)=O)NC1=O ([Mpa][X1]IQNC[Sar]RG-NH2; disulfide 1-6) | 5340 nM | 2640 nM |  |
| CC[C@H](C)[C@@H]1NC(=O)[C@@H]2c3[nH]c4ccccc4c3CCN2C(=O)CCSSC[C@H](C(=O)N(C)CC(=O)N[C@@H](CCCN=C(N)N)C(=O)NCC(N)=O)NC(=O)[C@H](CC(N)=O)NC(=O)[C@H](CCC(N)=O)NC1=O (single isomer, unassigned) | > 100000 nM | 63.5 nM |  |

Molecules with a lower Kd (Vasopressin V2 receptor), results first:

| Kd (Vasopressin V2 receptor) | Kd (Vasopressin V1 receptor) | Kd [1] | SMILES |
| --- | --- | --- | --- |
| 421 nM |  |  | CC[C@H](C)[C@@H]1NC(=O)[C@@H](Cc2ccccc2)NC(=O)CCSSC[C@@H](C(=O)N(C)CC(=O)N[C@@H](CCCNC(=N)N)C(=O)NCC(N)=O)NC(=O)[C@H](CC(N)=O)NC(=O)[C@H](CCC(N)=O)NC1=O |
| 3 nM |  | 6 nM | CC[C@H](C)[C@@H]1NC(=O)[C@@H](Cc2c[nH]c3ccccc23)NC(=O)CC2(CCCCC2)SSC[C@@H](C(=O)N(C)CC(=O)N[C@@H](CCCNC(=N)N)C(=O)NCC(N)=O)NC(=O)[C@H](CC(N)=O)NC(=O)[C@H](CCC(N)=O)NC1=O |
| 2290 nM | 17600 nM |  | CC[C@H](C)[C@@H]1NC(=O)[C@@]2(CCc3ccccc3C2)NC(=O)CCSSC[C@@H](C(=O)N(C)CC(=O)N[C@@H](CCCN=C(N)N)C(=O)NCC(N)=O)NC(=O)[C@H](CC(N)=O)NC(=O)[C@H](CCC(N)=O)NC1=O ([Mpa][Atc(2S)]IQNC[Sar]RG-NH2; disulfide 1-6) |
